The text below walks through data of patent publication US10745382B2 (BRISTOL-MYERS SQUIBB COMPANY, priority 2015, dated 2020).

T1 sequence (Q9NZQ7 with tags, fused parts or gaps): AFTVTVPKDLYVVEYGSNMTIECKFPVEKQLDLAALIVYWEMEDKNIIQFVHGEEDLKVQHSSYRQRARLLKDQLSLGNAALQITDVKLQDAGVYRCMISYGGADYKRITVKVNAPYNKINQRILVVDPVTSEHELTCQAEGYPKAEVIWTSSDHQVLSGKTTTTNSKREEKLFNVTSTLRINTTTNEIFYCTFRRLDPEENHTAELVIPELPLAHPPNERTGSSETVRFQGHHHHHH

This assay concerns the target T1, PD-1/PD-L1 (Homo sapiens, UniProt Q9NZQ7).
T1 construct: made in house; host or cells: HEK293T
Put plainly: PD-1/PD-L1 Homogenous Time-Resolved Fluorescence (HTRF) binding assay. To be noted: PD-L1-His 10 nM, PD-1-Ig 20 nM; value given as range class; read-out: Range or IC50. The protocol: The ability of the compounds of formula (I) to bind to PD-L1 was investigated using a PD-1/PD-L1 Homogenous Time-Resolved Fluorescence (HTRF) binding assay.
Homogenous Time-Resolved Fluorescence (HTRF) Binding Assay.
All binding studies were performed in an HTRF assay buffer consisting of dPBS supplemented with 0.1% […] bovine serum albumin and 0.05% (v/v) Tween-20. […] HTRF detection was achieved using europium crypate-labeled anti-Ig (1 nM final) and allophycocyanin (APC) labeled anti-His (20 nM final). Antibodies were diluted in HTRF detection buffer and 5 μl was dispensed on top of the binding reaction. […] Additional binding assays were established between the human proteins PD-1-Ig/PD-L2-His (20 & 5 nM, respectively) and CD80-His/PD-L1-Ig (100 & 10 nM, respectively). […]
As to `Cc1c(COc2cc(OCc3cncc(C#N)c3)c(CN3CC[C@H](O)C3)cc2Cl)cccc1-c1ccc2c(c1)OC(CCN1CC[C@H](O)C1)CO2` (mixture of isomers) [Example 1501, 5-((4-chloro-5-((3-(3-(2-((S)-3-hydroxypyrrolidin-1-yl)ethyl)-2,3-dihydrobenzo[b][1,4]dioxin-6-yl)-2-methylbenzyl)oxy)-2-(((S)-3-hydroxypyrrolidin-1-yl)methyl)phenoxy)methyl)nicotinonitrile], the IC50 fell in the range of 0.21 to 10 nM.

With `Cc1c(COc2cc(OCc3cncc(C#N)c3)c(C=O)cc2Cl)cccc1-c1ccc2c(c1)OC(CCN1CC[C@H](O)C1)CO2` (mixture of isomers) [Example 1502, 5-((4-chloro-2-formyl-5-((3-(3-(2-((S)-3-hydroxypyrrolidin-1-yl)ethyl)-2,3-dihydrobenzo[b][1,4]dioxin-6-yl)-2-methylbenzyl)oxy)phenoxy)methyl)nicotinonitrile], the concentration for half-maximal inhibition (IC50) is 10 to 100 nM.

Turning to `Cc1c(COc2cc(OCc3cncc(C#N)c3)c(CN3CCCC[C@H]3C(=O)O)cc2Cl)cccc1-c1ccc2c(c1)OC(CCN1CC[C@H](O)C1)CO2` (mixture of isomers) [Example 1503, (2S)-1-(5-chloro-2-((5-cyanopyridin-3-yl)methoxy)-4-((3-(3-(2-((S)-3-hydroxypyrrolidin-1-yl)ethyl)-2,3-dihydrobenzo[b][1,4]dioxin-6-yl)-2-methylbenzyl)oxy)benzyl)piperidine-2-carboxylic acid], the concentration for half-maximal inhibition (IC50) is 10 to 100 nM. With `Cc1c(COc2cc(OCc3cncc(C#N)c3)c(CN3CCCC[C@H]3C(=O)O)cc2Cl)cccc1-c1ccc2c(c1)OC(CCN1CC[C@@H](O)C1)CO2` (mixture of isomers) [Example 1504, (2S)-1-(5-chloro-2-((5-cyanopyridin-3-yl)methoxy)-4-((3-(3-(2-((R)-3-hydroxypyrrolidin-1-yl)ethyl)-2,3-dihydrobenzo[b][1,4]dioxin-6-yl)-2-methylbenzyl)oxy)benzyl)piperidine-2-carboxylic acid] the figure was 0.21 to 10 nM; with `Cc1c(COc2cc(OCc3cncc(S(C)(=O)=O)c3)c(CN3CCCC[C@H]3C(=O)O)cc2Cl)cccc1-c1ccc2c(c1)OC(CCN1CC[C@@H](O)C1)CO2` (mixture of isomers) [Example 1507, (2S)-1-(5-chloro-4-((3-(3-(2-((R)-3-hydroxypyrrolidin-1-yl)ethyl)-2,3-dihydrobenzo[b][1,4]dioxin-6-yl)-2-methylbenzyl)oxy)-2-((5-(methylsulfonyl)pyridin-3-yl)methoxy)benzyl)piperidine-2-carboxylic acid], 0.21 to 10 nM. With `Cc1c(COc2cc(OCc3cncc(S(C)(=O)=O)c3)c(CN3CCCC[C@H]3C(=O)O)cc2Cl)cccc1-c1ccc2c(c1)OC(CCN1CCC(O)(CC(=O)O)C1)CO2` (mixture of isomers) [Example 1508, (2S)-1-(4-((3-(3-(2-(3-(carboxymethyl)-3-hydroxypyrrolidin-1-yl)ethyl)-2,3-dihydrobenzo[b][1,4]dioxin-6-yl)-2-methylbenzyl)oxy)-5-chloro-2-((5-(methylsulfonyl)pyridin-3-yl)methoxy)benzyl)piperidine-2-carboxylic acid] the figure was 0.21 to 10 nM; with `Cc1c(COc2cc(OCc3cncc(S(C)(=O)=O)c3)c(CN3CCCC[C@H]3C(=O)O)cc2Cl)cccc1-c1cccc(OCCCN2CCC(O)(CC(=O)O)C2)c1C` (mixture of isomers) [Example 1516, (2S)-1-(4-((3′-(3-(3-(carboxymethyl)-3-hydroxypyrrolidin-1-yl)propoxy)-2,2′-dimethyl-[1,1′-biphenyl]-3-yl)methoxy)-5-chloro-2-((5-(methylsulfonyl)pyridin-3-yl)methoxy)benzyl)piperidine-2-carboxylic acid], 0.21 to 10 nM; with `Cc1c(COc2cc(OCc3cncc(C#N)c3)c(CN3CCCC[C@H]3C(=O)O)cc2Cl)cccc1-c1cccc(OCCCN2CCC(O)(CC(=O)O)C2)c1C` (mixture of isomers) [Example 1519, (2S)-1-(4-((3′-(3-(3-(carboxymethyl)-3-hydroxypyrrolidin-1-yl)propoxy)-2,2′-dimethyl-[1,1′-biphenyl]-3-yl)methoxy)-5-chloro-2-((5-cyanopyridin-3-yl)methoxy)benzyl)piperidine-2-carboxylic acid], 0.21 to 10 nM.

As to `CCOC(=O)CC1(O)CCN(CCC2COc3ccc(-c4cccc(COc5cc(OCc6cncc(S(C)(=O)=O)c6)c(CN6CCCC[C@H]6C(=O)OC)cc5Cl)c4C)cc3O2)C1` (mixture of isomers) [Example 1527, (2S)-methyl 1-(5-chloro-4-((3-(3-(2-(3-(2-ethoxy-2-oxoethyl)-3-hydroxypyrrolidin-1-yl)ethyl)-2,3-dihydrobenzo[b][1,4]dioxin-6-yl)-2-methylbenzyl)oxy)-2-((5-(methylsulfonyl)pyridin-3-yl)methoxy)benzyl)piperidine-2-carboxylate], the half-maximal inhibitory concentration (IC50) lay within 10 to 100 nM. With `Cc1c(COc2cc(OCc3cncc(C#N)c3)c(CNC(C)(CO)C(=O)O)cc2Cl)cccc1-c1cccc(OCc2cncc(C#N)c2)c1` (racemic) [Example 3018, 2-((5-chloro-2-((5-cyanopyridin-3-yl)methoxy)-4-((3′-((5-cyanopyridin-3-yl)methoxy)-2-methyl-[1,1′-biphenyl]-3-yl)methoxy)benzyl)amino)-3-hydroxy-2-methylpropanoic Acid] the figure was 0.21 to 10 nM; with `Cc1c(COc2cc(OCc3cncc(S(C)(=O)=O)c3)c(CN3CCCC[C@H]3C(=O)O)cc2Cl)cccc1-c1cccc(OCCCN2CCC(CO)(C(=O)O)C2)c1Cl` (single isomer, unassigned) [Example 1062], 0.21 to 10 nM. With `Cc1c(COc2cc(OCc3cncc(S(C)(=O)=O)c3)c(CNC(C)(CO)C(=O)O)cc2Cl)cccc1-c1cccc(OCCCN2CCC(CO)(C(=O)O)C2)c1Cl` (single isomer, unassigned) [Example 1063] the figure was 0.21 to 10 nM; with `Cc1c(COc2cc(OCc3cncc(S(C)(=O)=O)c3)c(CNC(C)(CO)C(=O)O)cc2Cl)cccc1-c1cccc(OCCCN2CCC(CO)(C(=O)O)C2)c1Cl` (single isomer, unassigned) [Example 1064], 0.21 to 10 nM; with `Cc1c(COc2cc(OCc3cncc(S(C)(=O)=O)c3)c(CN3CCCC[C@H]3C(=O)O)cc2Cl)cccc1-c1cccc(OCCCN2CCC(CO)(C(=O)O)C2)c1Cl` (single isomer, unassigned) [Example 1065], 0.21 to 10 nM. With `Cc1c(COc2cc(OCc3cncc(C#N)c3)c(CN3CCCC[C@H]3C(=O)O)cc2Cl)cccc1-c1cccc(OCCCN2CCC(CO)(C(=O)O)C2)c1C` (single isomer, unassigned) [Example 1066] the figure was 0.21 to 10 nM; with `Cc1c(COc2cc(OCc3cncc(C#N)c3)c(CNC(C)(CO)C(=O)O)cc2Cl)cccc1-c1cccc(OCCCN2CCC(CO)(C(=O)O)C2)c1C` (single isomer, unassigned) [Example 1067], 0.21 to 10 nM; with `Cc1c(COc2cc(OCc3cncc(C#N)c3)c(CN3CCCC[C@H]3C(=O)O)cc2Cl)cccc1-c1ccc2c(c1)OC(CCN1CC[C@@H](O)C1)CO2` (single isomer, unassigned) [Example 1505], 0.21 to 10 nM. On to `Cc1c(COc2cc(OCc3cncc(C#N)c3)c(CN3CCCC[C@H]3C(=O)O)cc2Cl)cccc1-c1ccc2c(c1)OC(CCN1CC[C@@H](O)C1)CO2` (single isomer, unassigned) [Example 1506], for which the half-inhibitory concentration (IC50) was in the range of 0.21 to 10 nM. With `Cc1c(COc2cc(OCc3cncc(C#N)c3)c(CNCCCN(C)C)cc2Cl)cccc1-c1cccc(OCCCN2CCC(O)C2)c1` (stereo in doubt) [Example 3001, (R)-5-((4-chloro-2-(((3-(dimethylamino)propyl)amino)methyl)-5-((3′-(3-(3-hydroxypyrrolidin-1-yl)propoxy)-2-methyl-[1,1′-biphenyl]-3-yl)methoxy)phenoxy)methyl)nicotinonitrile] the figure was 0.21 to 10 nM. With `Cc1c(COc2cc(OCc3cncc(C#N)c3)c(CN[C@@H](CCCNC(=N)N)C(=O)O)cc2Cl)cccc1-c1cccc(OCCCN2CCC(O)C2)c1` (stereo in doubt) [Example 3002, (S)-2-((5-chloro-2-((5-cyanopyridin-3-yl)methoxy)-4-((3′-(3-((R)-3-hydroxypyrrolidin-1-yl)propoxy)-2-methyl-[1,1′-biphenyl]-3-yl)methoxy)benzyl)amino)-5-guanidinopentanoic Acid] the figure was 0.21 to 10 nM.

For `Cc1c(COc2cc(OCc3cncc(C#N)c3)c(CN[C@@](C)(CO)C(=O)O)cc2Cl)cccc1-c1cccc(OCCCN2CCC(O)C2)c1C` (stereo in doubt) [Example 3003, (S)-2-((5-chloro-2-((5-cyanopyridin-3-yl)methoxy)-4-((3′-(3-((R)-3-hydroxypyrrolidin-1-yl)propoxy)-2,2′-dimethyl-[1,1′-biphenyl]-3-yl)methoxy)benzyl)amino)-3-hydroxy-2-methylpropanoic Acid], the IC50 lay in the range of 0.21 to 10 nM.

For the molecule `Cc1c(COc2cc(OCc3cncc(C#N)c3)c(CN[C@@H](CO)C(=O)O)cc2Cl)cccc1-c1cccc(OCCCN2CCC(O)C2)c1C` (stereo in doubt) [Example 3004, (S)-2-((5-chloro-2-((5-cyanopyridin-3-yl)methoxy)-4-((3′-(3-((R)-3-hydroxypyrrolidin-1-yl)propoxy)-2,2′-dimethyl-[1,1′-biphenyl]-3-yl)methoxy)benzyl)amino)-3-hydroxypropanoic Acid], the IC50 was in the range of 0.21 to 10 nM.
